These results are taken from patent publication US20220380408A1, “COMPOSITIONS AND METHODS FOR INHIBITING NEOINTIMAL FORMATION” (University of Virginia Patent Foundation, priority 2019, published 2022).

Test [1] has as its system Human coronary artery smooth muscle cells. Description: EDU proliferation by flow cytometry in cultured human coronary artery smooth muscle cells. It counts as cell-based. The note with it: for proliferation (EDU incorporation, flow cytometry): hCASMC incubated with agent for 48 hours (PGPC 100 μg, POVPC 100 μg, PDGF 20 ng). As to the method: (§1) Protein expression and interaction in cultured human coronary artery smooth muscle cells. Human coronary artery smooth muscle cells (Thermo Fisher Scientific, Inc., Waltham, Massachusetts, United States of America), were cultured until confluent in M231 media containing growth supplement (Thermo Fisher Scientific, Low Serum Growth Supplement Kit (LSGS) kit) as well as 20% fetal bovine serum (FBS). Prior to incubations, media was switched to low serum media (M231+2% FBS) for 3 days as previously described (Lohman et al., 2016). Cells were then incubated with oxidized phospholipids 1-palmitoyl-2-glutaroyl-sn-glycero-3-phosphorylcholine (PGPC, 100 μg) and 1-palmitoyl-2-oxovaleroyl-sn-glycero-3-phosphorylcholine (POVPC 100 μg), or the growth factor platelet derived growth factor beta (PDGF, 20 ng) as we have previously described (Johnstone et al. 2009; Johnstone et al. 2012) for 48 hours prior to harvesting and analysis for Western blotting and co-immunoprecipitation and EDU proliferation by flow cytometry as previously described (Johnstone et al. 2012). For peptide incubations, peptides were pre-incubated for 30 minutes with cells in fresh media prior to adding any further treatments.
However, the ability to bind with, and therefore activate, cyclin D was inhibited in the presence of PGPC (see FIG. 2A). […] Taken together, this identified Cx43 phosphorylation status as a molecular switch that controlled cellular proliferation (MAPK-Cx43) or quiescence (PKC-Cx43), a model that is depicted in see FIG. 2C.
(§2) Peptides representing sequences within the C-terminus of human Cx43, designed by peptide array, inhibited proliferation of human smooth muscle cells (see FIGS. 3A-3F). Cells were pretreated for 30 minutes with peptides, prior to incubation with PDGF for 2 days.

For test [2], the system named is human saphenous vein tissues. Description: Ex vivo human saphenous vein explant model (HUSVEM). It is filed as cell-based. The note with it: PDGF 50 ng/mL, 14 days, peptide 30 μM, everolimus 10 nM. The method, then:
Ex vivo, human saphenous vein explant model (HUSVEM). The translational relevance of the peptides was assessed in an ex vivo, human saphenous vein explant model (HUSVEM) based on previously validated protocols (Baker et al. 1997; Dreifaldt et al. 2013; Loesch, Dashwood & Souza, 2006; George et al., 1996). Briefly, human veins were obtained as excess tissue from coronary artery bypass surgeries. The protocol was assessed by the Institutional Review Board (IRB) of the University of Virginia (Charlottesville, Va., United States of America), and no IRB protocol was required. Human saphenous veins were opened laterally, cut into 10 mm sections, and pinned with the endothelial side facing up on SYLGARD® brand silicone curing agent-coated plates in RMPI media containing 2% FBS. After 1 hour, cells were incubated with either control peptide or CycliCx peptide (30 μM; LDPAKDCGDQKYAY; SEQ ID NO: 1) or everolimus (10 nM; Sigma Aldrich) for a further 60 minutes, prior to adding PDGF (50 ng/mL). Media was changed daily with fresh media containing peptides or everolimus and PDGF. At the end of 14 days media was removed and tissues fixed in 4% PFA for 24 hours then washed in 70% ethanol, prior to embedding in 3% agarose. Samples were then processed by routine paraffin embedding and stained using hematoxylin and eosin and van Gieson stains. Comparisons of neointmal growth were made, where the uppermost layer of elastin was used to identify the start region for formed neointima. Neointimal areas were calculated across 10 serial sections from each tissue and averaged. Analysis of PDGF treated vessels to peptide and everolimus treated tissues were made.
An exemplary CycliCx peptide (LDPAKDCGDQKYAY; SEQ ID NO: 1) was applied to human saphenous veins in ex vivo preparations for 2 weeks in the presence of PDGF and compared to everolimus, an agent used in drug eluting stents.

For test [3], the target named is T1, cyclin E (Homo sapiens, UniProt P24864). Description: Co-immunoprecipitation of Cx43/cyclin E interaction in human SMC. Also on record: host or cells: human coronary artery smooth muscle cells. It is filed as cell-based. The note with it: versus no peptide and scrambled peptide. The method, then: as §1
T1 sequence (P24864 whole entry): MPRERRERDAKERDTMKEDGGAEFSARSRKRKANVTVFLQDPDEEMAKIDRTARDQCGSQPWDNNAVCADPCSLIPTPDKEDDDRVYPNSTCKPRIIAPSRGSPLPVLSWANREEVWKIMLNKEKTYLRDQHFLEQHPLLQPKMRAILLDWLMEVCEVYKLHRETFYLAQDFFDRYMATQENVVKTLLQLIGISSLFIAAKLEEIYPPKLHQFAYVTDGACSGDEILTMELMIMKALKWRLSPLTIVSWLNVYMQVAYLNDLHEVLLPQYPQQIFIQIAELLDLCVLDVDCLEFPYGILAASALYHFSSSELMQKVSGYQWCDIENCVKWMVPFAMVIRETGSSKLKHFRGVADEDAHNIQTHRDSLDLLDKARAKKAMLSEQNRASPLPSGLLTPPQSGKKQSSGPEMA
Peptides representing sequences within the C-terminus of human Cx43, designed by peptide array, inhibited proliferation of human smooth muscle cells (see FIGS. 3A-3F). […]

In test [4] the test system is Cx43. Description: Western blot of Cx43 phosphorylation status in human coronary artery smooth muscle cells. It counts as cell-based. The note with it: hCASMC. As to the method: as §1, §2
The subject of test [5] is triple negative breast cancer (Hs578T). The test is described as follows: WST-1 (viability/MTT) assay of cancer cell proliferation, Hs578T. It is filed as cell-based, human. The note with it: single treatment 30 μM at day 0; versus control peptide. As to the method:
(§3) Two cancer cell lines originating from human melanoma (A375-MA2) and triple negative breast cancer (Hs578T) were used to assess the role of CycliCx in inhibiting proliferation. 500 cells per well were cultured in a 96-well plate containing 100 μl of medium. The next day (Day 0), 30 μM of CycliCx peptide or control peptide was added to the cells. Starting from Day 0, 10 μl of WST-1 reagent (viability/MTT) was added to each well and incubated for 75 minutes. Absorbance was measured at 450 nm. Data are presented in FIGS. 6B (A375-MA2) and 6C (Hs578T) as mean±SEM. p<0.05 by two way ANOVA.

Test [6] concerns mouse carotid arteries. The test is described as follows: Mouse carotid ligation neointimal formation model. It is filed as in vivo. The note with it: for Neointimal/media Ratio (±SEM): carotid ligation, 200 μg peptide in pluronic, 2 weeks. As to the method: Mouse carotid surgeries. Carotid ligation and pluronic application surgeries were performed as described (Johnstone et al. 2009; Johnstone et al. 2012). Briefly, mice were anesthetized by isoflurane and the left common carotid artery was exposed and carefully freed from surrounding tissue. A 6/0 silk suture was run under the carotid artery distal to the bifurcation site and two consecutive, flat square knots were tied tight enough to restrict blood flow. Control mice were surgical controls, where carotid artery was exposed and freed of surrounding tissue as described above but no suture was applied. Following ligation either 35% F127 pluronic gel, CycliCx peptide (200 μg in pluronic; LDPAKDCGDQKYAY; SEQ ID NO: 1) or control peptide (200 μg in pluronic; AYFNGCSSPTAPLDP; SEQ ID NO: 3) was applied to the outside of the carotid wall and surgical wound closed. At 2 weeks after surgery, mice were euthanized with an intraperitoneal injection of 60-90 mg/kg pentobarbital. Mice were perfused with 4% paraformaldehyde (PFA) and both treated (left common) and control (right common) carotids removed and stored in 4% PFA overnight for whole mount analysis or immunosectioning. For in vivo cell proliferation studies, mice were preinjected with 5-ethynyl-2′-deoxyuridine (EDU) prior to surgery and carotids were removed post-treatment for whole mount or tissue cross section analysis of EDU incorporation into proliferating cells. For analysis of neointima formation in vessels, areas corresponding to the media (containing vascular smooth muscle cells (VSMC)), neointima (containing proliferating VSMC) and lumen (void area) were measured on Haemotoxylin and Eosin (H&E) stained cross sections of carotid vessels and analyzed by Image J, image analysis software. The ratio of media:neointima was calculated.
An exemplary CycliCx peptide (LDPAKDCGDQKYAY; SEQ ID NO: 1) was applied to the carotids of mice for 14 days after placement of a suture to induce neointimal formation (FIG. 4A). In both ligation only and ligation with peptide, extensive neointima formed. […] Effects were tested in both male and female mice, and no sex-specific differences were noted (FIG. 4B and Table 1).

For test [7], the system named is human melanoma (A375-MA2). Description: WST-1 (viability/MTT) assay of cancer cell proliferation, A375-MA2. The note with it: single treatment 30 μM at day 0; versus control peptide. It is filed as cell-based. The method, then:
as §3

In test [8] the target is T1, cyclin E. Description: Peptide array (truncation array) probed with cyclin E protein. Also on record: made in house. It counts as binding. The note with it: based on mouse Cx43 sequence; cyclin E 10 μg/mL overnight. From the text: Peptide array. The C-terminus of the human Cx43 polypeptpide (Cx43-CT) is about 150 amino acids (a.a.) with a high abundance (>10%) of post-translationally modified sites (Aasen et al., 2018). This means that hundreds of combinations are required to delineate binding parameters. Using novel peptide array technology, the sites of interaction between connexin 43 (Cx43) and cyclin E were mapped. Immobilized peptide libraries corresponding to 25-residue regions of Cx43-CT were designed, synthesized, and nitrocellulose arrays generated. To test the requirement for phosphorylation, specific residues were replaced to mimic known protein interacting states (e.g., MAPK-Cx43 serines 255/262/279/282; see Johnstone et al. 2012). The role for phosphorylation was assayed in binding using single and multiple residue replacements. These included wild-type serine (S), native phospho-serine (pS), aspartate (D, phospho-mimic), or alanine (A, phospho-null) residues. Recombinant human cyclin E protein was generated for incubation with arrays (Johnstone et al. 2012). […] Signal was then detected using electrochemiluminescence (ECL) detection reagents as per manufacturer protocol (PIERCE™ brand, available from Thermo Fisher Scientific, Inc., Waltham, Mass., United States of America) and blots were scanned for analysis. […]

Test [9] has as its system cyclin D. The test is described as follows: Co-immunoprecipitation of Cx43 with cyclin D in human coronary artery smooth muscle cells. It is filed as cell-based. The note with it: hCASMC. As to the method:
as §1
However, the ability to bind with, and therefore activate, cyclin D was inhibited in the presence of PGPC (see FIG. 2A). […]

Entries after “also recorded” stand apart in the source; their conditions may differ. Ends that are not written are not given here. * marks the point of attachment. Stearoyl = CCCCCCCCCCCCCCCCCC(=O)*

Consider `CCCCCCCCCCCCCCCC(=O)OC[C@H](COP(=O)([O-])OCC[N+](C)(C)C)OC(=O)CCCC=O` [POVPC, 1-palmitoyl-2-oxovaleroyl-sn-glycero-3-phosphorylcholine, reference compound], for which, in test [1], the “proliferation (EDU incorporation, flow cytometry)” value is on record as “increased proliferation”.
Take `CO[C@H]1C[C@@H]2CC[C@@H](C)[C@@](O)(O2)C(=O)C(=O)N2CCCC[C@H]2C(=O)O[C@H]([C@H](C)C[C@@H]2CC[C@@H](OCCO)[C@H](OC)C2)CC(=O)[C@H](C)/C=C(\C)[C@@H](O)[C@@H](OC)C(=O)[C@H](C)C[C@H](C)/C=C/C=C/C=C/1C` [everolimus, reference compound]: the “neointimal formation in human saphenous veins” value in test [2] is “inhibited neointimal formation”.
On to “LDPSKDCGDPKYAY [pep3(mouse), CycliCx peptide with mouse Cx43 residues at positions 257 and 263]”, for which, in test [3], the “interactions with cyclin E (co-immunoprecipitation)” value was “significantly reduced”. For the same molecule, the “PKC-phosphorylated Cx43 species (western blot, pS368)” value in test [4] was “predominantly induced”. The “phosphorylation status of Cx43 (western blot)” value was “altered” in test [4] and “significantly altered” in test [4] (listed as pep3).
With “stearate-LDPAKDCGDQKYAY (Stearoyl-LDPAKDCGDQKYAY) [CycliCx]”, in test [5], the “proliferation of Hs578T cells” value is recorded as “significantly inhibit proliferation”. In addition, the “neointimal formation in human saphenous veins” value in [2] is “inhibited neointimal formation; also recorded: completely inhibited”. Further, the “Neointimal/media Ratio (±SEM)” value in test [6] (female mice) was 0.0060 ± 0.0379; in [6] (male mice), 0.0110 ± 0.0055. For the same molecule, in test [6] (mouse carotid, peptide applied for 14 days), the “neointimal formation induced by suture ligation” value is listed as “completely inhibited; also recorded: prevented”. Moreover, the “EDU incorporation (proliferation) of human smooth muscle cells” value in test [1] (peptide pretreatment 30 minutes, then PDGF for 2 days, versus PDGF alone or Scr peptide) is listed as “reduced”. Also, in [7], the “proliferation of A375-MA2 cells” value was “significantly inhibit proliferation”.
On to DPSKDCGDPKYAY, for which, in [8], the “sequence required for cyclin E binding in truncation-based array” value was “minimum sequence”.
`CCCCCCCCCCCCCCCC(=O)OC[C@H](COP(=O)([O-])OCC[N+](C)(C)C)OC(=O)CCCC(=O)O` [PGPC, 1-palmitoyl-2-glutaroyl-sn-glycero-3-phosphorylcholine, reference compound]: the “ability of Cx43 to bind with, and therefore activate, cyclin D” value in [9] is “inhibited”. Also, the “proliferation (EDU incorporation, flow cytometry)” value in test [1] is listed as “decreased proliferation”.
With “AYFNGCSSPTAPLDP [Control Pep, non-targeting control peptide, reference compound]”, the “neointimal formation in human saphenous veins” value in [2] is listed as “neointima were identified”. For the same molecule, the “Neointimal/media Ratio (±SEM)” value in test [6] (female mice) came to 1.017 ± 0.3869; in test [6] (male mice), 0.6690 ± 0.1111.

B1: platelet derived growth factor beta (protein, UniProt P01127 82-190, looked up)
Platelet-derived growth …: SLGSLTIAEPAMIAECKTRTEVFEISRRLIDRTNANFLVWPPCVEVQRCSGCCNNRNVQCRPTQVQLRPVQVRKIEIVRKKPIFKKATVTLEDHLACKCETVAAARPVT
notes: growth factor promoting MAPK phosphorylation of Cx43
As for B1, the “proliferation (EDU incorporation, flow cytometry)” value in test [1] is listed as “increased proliferation”.
